One assay has as its target hROMK1 (Kir1.1) (Homo sapiens (Human), UniProt P48048). The experiment in a line: ^86Rb^+ Efflux Assay. The class given is cell-based. To be noted: CHO-DHFR- cells stably expressing hROMK1 (Kir1.1).
The target of a further assay is hROMK (hKir1.1) (Homo sapiens (Human), UniProt P48048). Put plainly: Thallium Flux Assay. The class given is cell-based. To be noted: Table 2; HEK293 cells stably expressing hROMK (hKir1.1).
Setting [1] is: value in parentheses at the end of each Example, read-out: IC50 in the ^86Rb^+ Efflux Assay.
Where [2] appears, read: Table 1, read-out: ^86Rb^+ Efflux Assay IC50.

This passage reports IC50 results from US9073882B2, “Inhibitors of the renal outer medullary potassium channel” (Merck Sharp & Dohme Corp., priority 2010, dated 2015).

Where two headings read alike, the source gives them in different places.

Sequence of hROMK (hKir1.1) (P48048 whole entry): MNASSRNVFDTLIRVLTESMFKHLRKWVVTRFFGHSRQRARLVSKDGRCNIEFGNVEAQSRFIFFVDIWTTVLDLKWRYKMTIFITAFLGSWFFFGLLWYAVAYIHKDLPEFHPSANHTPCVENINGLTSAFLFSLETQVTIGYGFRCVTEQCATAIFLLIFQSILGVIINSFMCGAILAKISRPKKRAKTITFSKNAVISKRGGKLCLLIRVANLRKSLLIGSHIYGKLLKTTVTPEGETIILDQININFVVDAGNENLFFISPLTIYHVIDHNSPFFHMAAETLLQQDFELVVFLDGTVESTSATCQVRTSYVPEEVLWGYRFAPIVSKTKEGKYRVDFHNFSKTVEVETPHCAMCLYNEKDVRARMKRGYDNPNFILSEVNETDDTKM
Sequence of hROMK1 (Kir1.1) (P48048 whole entry): as above

With `COc1cc(CCN2CCN(CCc3ccc4c(c3)CC(C)OC4=O)CC2)ccc1C#N` (stereo not shown) [Example 57, 2-Methoxy-4-(2-{4-[2-(3-methyl-1-oxo-3,4-dihydro-1H-isochromen-6-yl)ethyl]piperazin-1-yl}ethyl)benzonitrile], the IC50 at hROMK1 (Kir1.1) (setting [1]) and on hROMK1 (Kir1.1) (setting [2]) was 98 nM each time.
As to `C[C@H]1Cc2cc(CCN3CCN(CCc4ccc5c(c4)C[C@H](C)OC5=O)CC3)ccc2C(=O)O1` [Example 58, (3S,3′S)-6,6′-(Piperazine-1,4-diyldiethane-2,1-diyl)bis(3-methyl-3,4-dihydro-1H-isochromen-1-one)], the IC50 (as a rule, the concentration at which inhibition is half-maximal) at hROMK1 (Kir1.1) (setting [1]) amounted to 650 nM; against hROMK (hKir1.1) it was 240 nM.
Turning to `Cc1c(CCN2CCN(CCc3ccc4c(c3C)COC4=O)CC2)ccc2c1COC2=O` [Example 59, 5,5′-(Piperazine-1,4-diyldiethane-2,1-diyl)bis(4-methyl-2-benzofuran-1(3H)-one)], the IC50 at hROMK1 (Kir1.1) (setting [1]) and at hROMK1 (Kir1.1) (setting [2]) was 76 nM in each case.
On to `COc1cc(CCN2CCN(CCc3ccc4c(c3)COC4=O)CC2)c(Cl)cc1C#N` [Example 61, 5-Chloro-2-methoxy-4-(2-{4-[2-(1-oxo-1,3-dihydro-2-benzofuran-5-yl)ethyl]piperazin-1-yl}ethyl)benzonitrile], for which the IC50 on hROMK1 (Kir1.1) (setting [1]) is 94 nM.
As to `N#Cc1ccc(CCN2CCN(CCc3ccc4c(c3)COC4=O)CC2)cc1OC(F)F` [Example 63, 2-(Difluoromethoxy)-4-(2-{4-[2-(1-oxo-1,3-dihydro-2-benzofuran-5-yl)ethyl]piperazin-1-yl}ethyl)benzonitrile], at hROMK1 (Kir1.1) (setting [1]), the IC50 turned out to be 150 nM.
Turning to `N#Cc1ccc2c(c1)CCC(N1CCN(CCc3ccc4c(c3)COC4=O)CC1)C2` (stereo not shown) [Example 66, 6-{4-[2-(1-Oxo-1,3-dihydro-2-benzofuran-5-yl)ethyl]piperazin-1-yl}-5,6,7,8-tetrahydronaphthalene-2-carbonitrile], at hROMK1 (Kir1.1) (setting [1]), the IC50 came out at 50 nM.
Same read-out and setting: the figure for `Cc1c(CCN2CCN(CCc3ccc(C#N)c(OC(F)(F)F)c3)CC2)ccc2c1COC2=O` [Example 69, 2-Trifluoromethoxy-4-(2-{4-[2-(4-methyl-1-oxo-1,3-dihydro-2-benzofuran-5-yl)ethyl]piperazin-1-yl}ethyl)benzonitrile] is 200 nM; for `Cc1c(CCN2CCN(CCc3ccc(C#N)c(Cl)c3)CC2)ccc2c1COC2=O` [Example 71, 2-Chloro-4-(2-{4-[2-(4-methyl-1-oxo-1,3-dihydro-2-benzofuran-5-yl)ethyl]piperazin-1-yl}ethyl)benzonitrile] it is 35 nM.
On to `COc1c(C#N)ccc(CCN2CCN(CCc3ccc4c(c3)COC4=O)CC2)c1F` [Example 72, 3-Fluoro-2-methoxy-4-(2-{4-[2-(1-oxo-1,3-dihydro-2-benzofuran-5-yl)ethyl]piperazin-1-yl}ethyl)benzonitrile], for which, at hROMK1 (Kir1.1) (setting [1]), the IC50 stood at 92 nM.
Take `COc1c(C#N)ccc(CCN2CCN(CCc3ccc4c(c3C)COC4=O)CC2)c1F` [Example 73, 3-Fluoro-2-methoxy-4-(2-{4-[2-(4-methyl-1-oxo-1,3-dihydro-2-benzofuran-5-yl)ethyl]piperazin-1-yl}ethyl)benzonitrile]: the IC50 on hROMK1 (Kir1.1) (setting [1]) was 91 nM.
Take `Cc1c(CCN2CCN(CCc3ccc(C#N)c4ccccc34)CC2)ccc2c1COC2=O` [Example 74, 4-(2-{4-[2-(4-Methyl-1-oxo-1,3-dihydro-2-benzofuran-5-yl)ethyl]piperazin-1-yl}ethyl)naphthalene-1-carbonitrile]: the half-maximal inhibitory concentration (IC50) on hROMK1 (Kir1.1) (setting [1]) and on hROMK1 (Kir1.1) (setting [2]) was 160 nM each time.
As to `Cc1c(CCN2CCN(CCc3c(F)cc(C#N)c(F)c3F)CC2)ccc2c1COC2=O` [Example 75, 2,3,5-Trifluoro-4-(2-{4-[2-(4-methyl-1-oxo-1,3-dihydro-2-benzofuran-5-yl)ethyl]piperazin-1-yl}ethyl)benzonitrile], the IC50 at hROMK1 (Kir1.1) (setting [1]) is 230 nM.
As to `CCOc1cc(CCN2CCN(CCc3ccc4c(c3C)COC4=O)CC2)ccc1C#N` [Example 77, 2-Ethoxy-4-(2-{4-[2-(4-methyl-1-oxo-1,3-dihydro-2-benzofuran-5-yl)ethyl]piperazin-1-yl}ethyl)benzonitrile], at hROMK1 (Kir1.1) (setting [1]), the IC50 came to 74 nM.
Still for that read-out and setting: the figure for `N#Cc1cc(Cl)c(CCN2CCN(CCc3ccc4c(c3)COC4=O)CC2)cc1F` [Example 78, 5-Chloro-2-fluoro-4-(2-{4-[2-(1-oxo-1,3-dihydro-2-benzofuran-5-yl)ethyl]piperazin-1-yl}ethyl)benzonitrile] is 76 nM.
Turning to `Cc1c(CCN2CCN(CCc3cc(F)c(C#N)cc3Cl)CC2)ccc2c1COC2=O` [Example 79, 5-Chloro-2-fluoro-4-(2-{4-[2-(4-methyl-1-oxo-1,3-dihydro-2-benzofuran-5-yl)ethyl]piperazin-1-yl}ethyl)benzonitrile], at hROMK1 (Kir1.1) (setting [1]), the IC50 worked out at 48 nM.
In the case of `COc1cc(CCN2CCN(CCc3ccc4c(c3C)COC4=O)CC2)c(Cl)cc1C#N` [Example 80, 5-Chloro-2-methoxy-4-(2-{4-[2-(4-methyl-1-oxo-1,3-dihydro-2-benzofuran-5-yl)ethyl]piperazin-1-yl}ethyl)benzonitrile], at hROMK1 (Kir1.1) (setting [1]), the IC50 stood at 71 nM.
Regarding `Cc1c(CCN2CCN(CCc3ccc4c(c3)COC4=O)CC2)ccc(C#N)c1F` [Example 81, 2-Fluoro-3-methyl-4-(2-{4-[2-(1-oxo-1,3-dihydro-2-benzofuran-5-yl)ethyl]piperazin-1-yl}ethyl)benzonitrile], the IC50 at hROMK1 (Kir1.1) (setting [1]) was 80 nM.
On the same count and under the same terms, in the case of `Cc1c(CCN2CCN(CCc3ccc4c(c3C)COC4=O)CC2)ccc(C#N)c1F` [Example 82, 2-Fluoro-3-methyl-4-(2-{4-[2-(4-methyl-1-oxo-1,3-dihydro-2-benzofuran-5-yl)ethyl]piperazin-1-yl}ethyl)benzonitrile] it was 63 nM.
The same measure, in the same setting: the figure for `COc1c(C#N)ccc(CCN2CCN(CCc3ccc4c(c3)COC4=O)CC2)c1C` [Example 83, 2-Methoxy-3-methyl-4-(2-{4-[2-(1-oxo-1,3-dihydro-2-benzofuran-5-yl)ethyl]piperazin-1-yl}ethyl)benzonitrile] is 180 nM.
Same read-out and setting: in the case of `COc1c(C#N)ccc(CCN2CCN(CCc3ccc4c(c3C)COC4=O)CC2)c1C` [Example 84, 2-Methoxy-3-methyl-4-(2-{4-[2-(4-methyl-1-oxo-1,3-dihydro-2-benzofuran-5-yl)ethyl]piperazin-1-yl}ethyl)benzonitrile] it was 78 nM; in that of `N#Cc1ccc(CCN2CCN(CCc3ccc4c(c3)COC4=O)CC2)c(Cl)c1F` [Example 85, 3-Chloro-2-fluoro-4-(2-{4-[2-(1-oxo-1,3-dihydro-2-benzofuran-5-yl)ethyl]piperazin-1-yl}ethyl)benzonitrile], 130 nM.
As to `Cc1c(CCN2CCN(CCc3ccc(C#N)c(F)c3Cl)CC2)ccc2c1COC2=O` [Example 86, 3-Chloro-2-fluoro-4-(2-{4-[2-(4-methyl-1-oxo-1,3-dihydro-2-benzofuran-5-yl)ethyl]piperazin-1-yl}ethyl)benzonitrile], the IC50 at hROMK1 (Kir1.1) (setting [1]) amounted to 78 nM; against hROMK (hKir1.1), 17 nM.
As to `COc1c(C#N)ccc(CCN2CCN(CCc3ccc4c(c3)COC4=O)CC2)c1Cl` [Example 87, 3-Chloro-2-methoxy-4-(2-{4-[2-(1-oxo-1,3-dihydro-2-benzofuran-5-yl)ethyl]piperazin-1-yl}ethyl)benzonitrile], the IC50 on hROMK1 (Kir1.1) (setting [1]) was 160 nM.
Still for that read-out and setting: in the case of `COc1c(C#N)ccc(CCN2CCN(CCc3ccc4c(c3C)COC4=O)CC2)c1Cl` [Example 88, 3-Chloro-2-methoxy-4-(2-{4-[2-(4-methyl-1-oxo-1,3-dihydro-2-benzofuran-5-yl)ethyl]piperazin-1-yl}ethyl)benzonitrile] it was 83 nM; in that of `Cc1c(CCN2CCN(CC3CCOc4cc(C#N)ccc43)CC2)ccc2c1COC2=O` (stereo not shown) [Example 91, 4-({4-[2-(4-Methyl-1-oxo-1,3-dihydro-2-benzofuran-5-yl)ethyl]piperazin-1-yl}methyl)-3,4-dihydro-2H-chromene-7-carbonitrile], 180 nM.
Still for that read-out and setting: in the case of `Cc1c(C(C)CN2CCN(CC(C)c3ccc4c(c3C)COC4=O)CC2)ccc2c1COC2=O` (stereo not shown) [Example 93] it was 220 nM.
For the molecule `Cc1c(CCN2CCN(CC(C)c3ccc4c(c3C)COC4=O)CC2)ccc2c1COC2=O` (stereo not shown) [Example 94, 4-Methyl-5-(1-(4-(2-(4-methyl-1-oxo-1,3-dihydroisobenzofuran-5-yl)ethyl)piperazin-1-yl)propan-2-yl)isobenzofuran-1(3H)-one], the IC50 on hROMK1 (Kir1.1) (setting [1]) is 34 nM; on hROMK1 (Kir1.1) (setting [2]) it was 34 nM; at hROMK (hKir1.1), 12 nM.
